Biological target: T1, wild-type K-Ras protein (Homo sapiens, UniProt P01116)
T1 construct: expressed in transfected cells; host or cells: HeLa cells, transient transfection
Test: Degradation (knockdown) of forcibly expressed wild-type K-Ras protein in HeLa cells, FACS analysis
Type: cell-based
Protocol: A plasmid expressing a wild-type K-Ras protein (K-Ras-WT) was prepared using a plasmid (pMIR-DsRed-IRES-ecDHFR-HA-GFP) expressing an ecDHFR protein by RF cloning. The full-length cDNA clone (Accession No. AK292510) of a human K-ras gene was purchased from Independent Administrative Institution, the National Institute of Technology and Evaluation. PCR amplification was performed using KOD-Plus-Neo (TOYOBO CO., LTD) as a PCR enzyme.
The plasmid was introduced into HeLa cells to transiently overexpress a wild-type K-Ras protein (specifically, a fusion protein of a wild-type K-Ras protein and GFP via a HA tag) or a DsRed protein for comparison in the cells.
ScreenFect™A (Wako Pure Chemical Industries, Ltd.) as a transfection reagent was used to introduce the plasmid into HeLa cells by a routine procedure. The HeLa cells into which the plasmid had been introduced were seeded in a 24-well plate at a cell density of 4×10^4 cells/well, and then cultured under conditions of 37° C. and 5 vol % CO2 for 40 hours. […]
A BD FACSCanto™ II (BD Biosciences) was used for flow cytometry, and the expression levels of GFP and DsRed protein in the cells were quantified. […] The GFP/DsRed ratio per cell was computed using an analysis software FlowJo™ (TOMY Digital Biology Co., Ltd.), and degradation (knockdown) of the wild-type K-Ras protein by TUS-007 was determined from a shift in a graph.

T1 sequence (P01116 1-188 isoform P01116-2): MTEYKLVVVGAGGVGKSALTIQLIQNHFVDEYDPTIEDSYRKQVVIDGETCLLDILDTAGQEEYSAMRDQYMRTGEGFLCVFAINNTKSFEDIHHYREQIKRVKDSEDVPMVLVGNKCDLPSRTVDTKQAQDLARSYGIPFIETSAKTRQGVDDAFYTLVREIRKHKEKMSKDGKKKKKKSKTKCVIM

Structure (SMILES): CC[C@@H](C)[C@H](NC(=O)CCCCCCNC(=O)[C@H](CC(C)C)NC(=O)CNC(=O)c1cc(Cl)ccc1Cl)C(=O)Nc1ccc2[nH]c(Cc3c[nH]c4ccccc34)nc2c1 [TUS-007]
- degradation (knockdown) of wild-type K-Ras protein (shift of GFP/DsRed ratio graph) (24 hours after addition, vs control (DMSO)): degradation of the wild-type K-Ras protein was induced
- degradation of wild-type K-Ras protein when MLN2238 is added together (both TUS-007 and MLN2238 added, compared with TUS-007 alone): degradation of the wild-type K-Ras protein was inhibited

— patent US20190369111A1, “MOLECULAR KINETICS EVALUATION METHOD AND SCREENING METHOD” (Tokyo University of Science Foundation, priority 2016, published 2019)
